{
  "source": "patent US7731945B2",
  "about": "“Immunotherapy for reversing immune suppression” (Immuno-Rx, Inc., priority 2001, dated 2010)",
  "key": {"[1]": {"tested_on": "endogenous suppression of T cells caused by cancer lesions", "assay": "NSAID codelivered for contrasuppression in the NCM regimen", "format": "in vivo, human", "conditions": "for effectiveness as NSAID for blocking endogenous suppression of T cells: codelivery with low dose cyclophosphamide and NCM", "excerpt": "It is preferable to block endogenous suppression of T cells, such as caused by various cancer lesions. Blocking is effected by the codelivery of low dose cyclophosphamide and a nonsteroidal anti-inflammatory drug (NSAID). The NSAID of choice is indomethacin. […] Side effects of NSAIDs are to be aggressively treated with […] and a prostaglandin E analog. Zinc and multivitamins are useful agents to help restore T cell immunity. Treatment with contrasuppression and zinc without the NCM is ineffective."}, "T lymphocytes": {"tested_on": "T lymphocytes", "assay": "Cytokine induction by OKT-3 and/or PHA plus Ciprofloxacin, cells incubated in flasks", "format": "cell-based, human", "excerpt": "The buffy coat white cells of human blood from multiple HIV-negative hepatitis virus-negative donors is collected. In an alternative embodiment, animals are the cell source for veterinary uses. The cells from the donors are pooled and layered on ficoll hypaque gradients (Pharmacia) to yield lymphocytes free of neutrophils and erythrocytes. Alternative methods could be used that would result in the same starting lymphocyte population as are known in the art.\nThe lymphocytes are washed and distributed in X vivo-10 media (Whittaker Bioproducts) to surface activated cell culture flasks for selection of cell subsets (MICROCELLECTOR™ T-25 Cell Culture Flasks), which contain immobilized stimulants, i.e., mitogens like PHA. In one set of experiments, X vivo-15 and X vivo-20 media were used as indicated. The immobilization process for the stimulants is as described by the manufacturer for immobilizing various substances for panning procedures, i.e., separating cells, in the flasks. Alternatively, the lymphocytes are exposed to stimulants e.g., PHA for 2-4 hours then washed three times.\nThe cells are incubated for 24 to 48 hours in X vivo-10 media with 80 μg/ml Ciprofloxacin (Miles Lab) at 37° in a CO2/air incubator. […] Generally, the HSA is used at 0.1 to 0.5% (weight by volume). Following incubation, the supernatants are poured off and collected. Human serum albumin (HSA) may be added to stabilize further the interleukins if HSA-free media is used for generations. The supernatants are store at 4° C. to −70°."}, "thymocyte and splenocyte": {"tested_on": "thymocyte and splenocyte", "conditions": "in vivo thymosin α1 5 μg/animal/day, NCM 50 units IL-2 equivalence; FIGS. 21, 22; cited from earlier work"}},
  "data": [
    {"compound": "Cc1ccc(-c2cc(C(F)(F)F)nn2-c2ccc(S(N)(=O)=O)cc2)cc1", "note": "[Celebrex®]", "values": [
      {"measurement": "effectiveness as NSAID for blocking endogenous suppression of T cells", "setting": "[1]", "result": "less effective"}
    ]},
    {"compound": "CC(C)Cc1ccc(C(C)C(=O)O)cc1", "note": "(stereo not shown) [Ibuprofen]", "values": [
      {"measurement": "histological responses", "setting": "[1]; as NSAID of the regimen", "result": "characteristic of a TH2 rather than TH1 mediated response"},
      {"measurement": "effectiveness as NSAID for blocking endogenous suppression of T cells", "setting": "[1]", "result": "effective"}
    ]},
    {"compound": "CS(=O)(=O)c1ccc(C2=C(c3ccccc3)C(=O)OC2)cc1", "note": "[Vioxx®]", "values": [
      {"measurement": "toxicity", "setting": "[1]; as NSAID of the regimen", "result": "causing gastritis in many patients"},
      {"measurement": "effectiveness as NSAID for blocking endogenous suppression of T cells", "setting": "[1]", "result": "less effective"}
    ]},
    {"compound": "COc1ccc2c(c1)c(CC(=O)O)c(C)n2C(=O)c1ccc(Cl)cc1", "note": "[indomethacin]", "values": [
      {"measurement": "toxicity", "setting": "[1]; as NSAID of the regimen", "result": "arguably the most toxic"},
      {"measurement": "effectiveness as NSAID for blocking endogenous suppression of T cells", "setting": "[1]", "result": "most effective NSAID"}
    ]},
    {"compound": "OKT-3: monoclonal antibody (Ortho) which induces T lymphocytes to proliferate and produce interleukins", "values": [
      {"measurement": "GM-CSF", "setting": "T lymphocytes", "result": 75, "unit": "pg/mL"},
      {"measurement": "IFN-Y", "setting": "T lymphocytes", "result": 11280, "unit": "pg/mL"},
      {"measurement": "IL-1-β", "setting": "T lymphocytes", "result": 1125, "unit": "pg/mL"},
      {"measurement": "IL-6", "setting": "T lymphocytes", "result": 1980, "unit": "pg/mL"},
      {"measurement": "TNF-α", "setting": "T lymphocytes", "result": 2500, "unit": "pg/mL"}
    ]},
    {"compound": "Thymosin α1", "values": [
      {"measurement": "thymocyte and splenocyte in vitro responses to media, rIL-1, rIL-2 and NCM", "setting": "thymocyte and splenocyte", "result": "increase many of the responses"}
    ]}
  ]
}
